Test results as given in patent US20190225941A1, “MODULATION OF FUNCTION OF IMMUNE EFFECTOR CELLS” (OSLO UNIVERSITETSSYKEHUS HF, priority 2016, published 2019).
Entries after “also recorded” stand apart in the source; their conditions may differ. Peptide text beside a SMILES is read from it. * marks the point of attachment. βNA = c1ccc2cc(N*)ccc2c1

Tests used:
NK cells [1] = test: Viability of NK cells exposed to lysosomotropic compounds; assay type: cell-based, human; conditions: at the doses tested, FIG. 15A
NK cells [2] = test: CD107a mobilization after PMA/Ionomycin stimulation; assay type: cell-based, human; conditions: indicated doses of GPN, FIG. 14D-E
Protocol: (§1) Functional assays were performed at 37° C. in complete medium (RPMI+10% FCS) for the times indicated. Purified NK cells were incubated with K562 target cells for 5 hours at a ratio of 1:1 in the presence of anti-CD107a-FITC (biolegend) for degranulation assays, or with the addition of Brefeldin A (GolgiPlug BD) for degranulation plus intracellular cytokine assays. Treatment with lysosomotropic reagents were performed for the duration of the assay using the following final concentrations; glycyl-L-phenylalanine-β-naphthylamide (GPN, 50 μM), mefloquine (10 μM), siramesine (10 μM), vacuolin-1 (10 μM). Stimulation with PMA (1 μg/mL) and ionomycin (0.5 μM), or with thapsigargin (1 μM) and/or U18666a (2 μg/mL) were performed for the times indicated, and the cells were stained for CD107a surface expression post-stimulation.

primary NK cells [3] = test: Phospho-flow cytometry after CD16 ligation; assay type: cell-based, human; conditions: 1 h pre-treatment, GPN 50 μM or vacuolin-1 10 μM
Protocol: Functional assays for phospho-flow cytometry were performed at 37° C. in complete medium in NK cell suspensions between 5-10 M/mL for 20 min. Cells were pre-treated for 1 h using GPN (50 μM) or vacuolin-1 (10 μM), after which biotinylated CD16 (Biolegend, clone 3G8) was added to final concentrations of 5 μg/mL each. After 1 min, the aliquot for the 0 min (unstimulated) sample was taken out and mixed with Fix Buffer I (BD Biosciences). After one additional minute, the stimulation was started by crosslinking the biotinylated antibodies via 50 μg/mL avidin (Thermo Fischer Scientific) and the aliquots for the 5 min, 10 min and 20 min samples were transferred into Fix Buffer I (BD bioscience) at the corresponding time points. Cells were fixed at 37° C. for 10 min, washed and re-suspended in PBS. To allow combination of the differently stimulated samples into one, two dimensional fluorescent cell barcoding (FCB) was utilized. Samples were stained in distinct concentrations of amine-reactive pacific blue succinimidyl ester (Thermo Fisher Scientific) for the time points (0 min-0.69 ng/mL, 5 min-6.25 ng/mL, 10 min-25 ng/mL and 20 min-100 ng/mL) in combination with amine-reactive pacific orange succinimidyl ester (Thermo Fisher Scientific) for the different stimulations (control—10 ng/mL, GPN—100 ng/mL and vacuolin-1-500 ng/mL). After 20 min at RT, samples were washed twice in wash solution (PBS supplemented with 1% FCS and 0.09% sodium azide), combined, permeabilized (Perm Buffer III, BD Biosciences) and stored at −80° C. For thawing, samples were incubated 20 min on ice. Then, they were washed in wash solution and stained with Alexa Fluor 647-conjugated phospho epitope-specific antibodies against ZAP70/syk (pY319/pY352), Lck (pY505), Erk1/2 (pT202/pY204) (BD Bioscience), NF-κB p65 (pS536) (Cell Signaling Technologies) or isotype control IgG1K (BD Biosciences) for 30 min at RT. After washing data was acquired on an LSR Fortessa (BD Biosciences) and analysed in with FlowJo v10.0.8 (TreeStar).

NK cells [4] = test: Degranulation (CD107a) and intracellular IFN-γ functional assay, NK cells stimulated with K562 target cells; assay type: cell-based, human; conditions: for IFN-γ response to K562 cells / degranulation (CD107a) in response to K562 cells: 5 h, 1:1 ratio, GPN 50 μM, mefloquine 10 μM, siramesine 10 μM, vacuolin-1 10 μM
Protocol: as §1

NK cells [5] = conditions: positive control, known property; cited from earlier work
NK cells [6] = test: Granzyme B expression by flow cytometry after IL-15 or IL-21 stimulation with or without signalling inhibitors; assay type: cell-based, human
From the text: Isolated PBMC were stained for flow cytometric analysis using an appropriate combination of the following antibodies, followed by the name of the clone in brackets: CD14-V500 (M5E2), CD19-V500 (HIB19), CD3-V500 (UCHT1), CD56 ECD (N901) CD57-PB (HCD57), CD57 purified (TB01), anti-mouse-IgM-EF650 (II/41), NKG2A-PE, APC or APC.AF750 (Z199), CD16-BV785 (3G8), KIR2DL3-FITC, KIR2DL1-APC or APC-Vio770 (REA284), KIR3DL1-AF700 or BV421 (D×9), KIR2DS4-QD585 (1847), KIR3DL2-biotin (D×31), KIR2DL2/L3/S2-PE.Cy5.5 (GL183), KIR2DL1/S1-PE.Cy7 (EB6) or PE-Vio770 (11 PB6). Dead cells were labelled using live/dead aqua (Life technologies). Biotin-conjugated antibodies were visualized using streptavidin-Qdot 585 or 605 (Life technologies). After surface staining, cells were fixed and permeabilized using a fixation/permeabilization kit (BD Bioscience Cytofix/Cytoperm) prior to intracellular staining with anti-granzyme B-A700 (GB11). Samples were acquired using an LSRII flow cytometer (Becton Dickinson) and data was analysed using FlowJo V10.0.8 (TreeStar).

primary NK cells [7] = test: Confocal imaging of primary NK cells exposed to PIKfyve inhibitors (LAMP-1 / granzyme B staining); assay type: cell-based, human; conditions: for secretory lysosome size: 1 μM overnight, LAMP-1 staining, FIG. 10
Protocol: Sorted NK cells were prepared for confocal microscopy using fixation/permeabilization (BD Bioscience Cytofix/Cytoperm) prior to intracellular staining with mouse anti-human granzyme B-A647 (GB11), rabbit anti-human pericentrin (Ab4448) followed by Donkey anti-Rabbit IgG Alexa555 and donkey anti-mouse-A568. After staining, the fixed cells were adhered to glass cover slips using Cell Tak (Corning) and mounted using Pro-long Gold Antifade with DAPI. The cells were examined with a Zeiss LSM 710 confocal microscope (Carl Zeiss Microlmaging GmbH) equipped with an Ar-Laser Multiline (458/488/514 nm), a DPSS-561 10 (561 nm), a Laser diode 405-30 CW (405 nm), and a HeNe-laser (633 nm). The objective used was a Zeiss plan-Apochromat 63×NA/1.4 oil DICII. Image processing and analysis were performed with basic software ZEN 2011 (Carl Zeiss Microlmaging GmbH) and Imaris 7.7.2 (Bitplane AG). Confocal z-stacks were deconvolved using Huygens Essential 14.06 (Scientific Volume Imaging b.v.), and visualized with Imaris.
Cells were surface-stained with anti-human HLA-ABC antibody (W6/32, BioLegend) prior to settlement on CelITak-coated slides for 20 minutes, followed by fixation with 4% paraformaldehyde. Intracellular staining was performed by incubation with anti-human LAMP-1 (Ab24170, Abcam) for 4h, followed by donkey anti-rabbit-A488 antibody (abcam) and donkey anti-mouse-A568 antibody (Abcam) and Hoechst33342.
Where indicated, cells were stained with mouse anti-human granzyme B-A647 (GB11) instead of anti-HLA-ABC, followed by donkey anti-mouse-A568.

NCC(=O)N[C@@H](Cc1ccccc1)C(=O)Nc1ccc2ccccc2c1 [GPN, glycyl-L-phenylalanine-beta-naphthylamide] (H-Gly-Phe-βNA)
general cellular toxicity (NK cell viability) (NK cells [1]): none of these compounds showed any general cellular toxicity
threshold for PMA/I-induced activation in self-specific NK cells (NK cells [2]): reversed the higher threshold for PMA/I-induced activation
propagation of down-stream signals, in particular NF-κB (primary NK cells [3]): decreased
upstream signalling (ZAP70 and Lck phosphorylation) following ligation of CD16 (primary NK cells [3]): minimal effect
IFN-γ response to K562 cells (NK cells [4]): reduced corresponding IFN-γ expression
degranulation (CD107a) in response to K562 cells (NK cells [4]): abrogate specific degranulation

COC(=O)[C@H](CC(C)C)NC(=O)[C@@H](N)CC(C)C [LeuLeuOMe, L-Leucyl-L-leucine methyl ester]
induction of apoptosis in immune cells (NK cells [5]): known to induce apoptosis in immune cells

IL-21: cytokine used to prime NK cells
granzyme B response to cytokine stimulation, CD56dim NK cells (NK cells [6]): increases in the level of granzyme B

Ic1cccc(/C=N/Nc2nc(N3CCOCC3)nc(N(c3ccccc3)c3ccccc3)n2)c1 [vacuolin-1]
secretory lysosome size (primary NK cells [7]): increase in secretory lysosome size
clustering of granzyme B within secretory lysosomes (primary NK cells [7]; vacuolin-1 treatment, FIG. 11): clustering of Granzyme B inside the secretory lysosomes; also recorded: cause granzyme B to cluster within the large secretory lysosomes formed
propagation of down-stream signals, in particular NF-κB (primary NK cells [3]): increased
upstream signalling (ZAP70 and Lck phosphorylation) following ligation of CD16 (primary NK cells [3]): minimal effect
IFN-γ response to K562 cells (NK cells [4]): enhanced
degranulation (CD107a) in response to K562 cells (NK cells [4]): enhanced
NK cell function, compound alone (NK cells [4]; resting NK cells, no target cell stimulation): had no effect

Cc1cccc(/C=N/Nc2cc(N3CCOCC3)nc(OCCc3ccccn3)n2)c1 [apilimod]
secretory lysosome size (primary NK cells [7]): increase in secretory lysosome size

Fc1ccc(-n2cc(CCCCN3CCC4(CC3)OCc3ccccc34)c3ccccc32)cc1 [Siramesine]
general cellular toxicity (NK cell viability) (NK cells [1]): none of these compounds showed any general cellular toxicity

CCC(=O)N1CCN(c2ccc(-n3c(=O)ccc4cnc5ccc(-c6cnc7ccccc7c6)cc5c43)cc2C(F)(F)F)CC1 [Torin-1]
cytokine-induced increase in granzyme B (NK cells [6]; 24 h IL-15 or IL-21, self- and non-self-specific NK cells): reversed the cytokine-induced increase in granzyme B
pre-existing constitutive levels of granzyme B (NK cells [6]; before cytokine stimulation, FIG. 6): did not further reduce

IL-15: cytokine used to prime NK cells
granzyme B response to cytokine priming, CD56bright NK cells (NK cells [6]; CD56bright NK cells): responded to priming by IL-15
granzyme B response to cytokine stimulation, CD56dim NK cells (NK cells [6]): increases in the level of granzyme B

OC(c1cc(C(F)(F)F)nc2c(C(F)(F)F)cccc12)C1CCCCN1 (stereo not shown) [Mefloquine]
general cellular toxicity (NK cell viability) (NK cells [1]): none of these compounds showed any general cellular toxicity
